# Experimental data: the kinase profiling compilation of Christmann-Franck et al. (2016)
# What was measured:
# Details in all cases: compound 10.0 µM
# [1] = system: KIT (human), P10721 [L576P]
# [2] = biological target: CIT (human) (UniProt O14578)
# [3] = biological target: PIP5K1A (human) (UniProt Q99755)
# [4] = biological target: MAP2K4 (human) (UniProt P45985)
# [5] = biological target: PIM2 (human) (UniProt Q9P1W9)
# [6] = biological target: CDK2 (human) (UniProt P24941)
# [7] = biological target: MARK4 (human) (UniProt Q96L34)
# [8] = biological target: MAPKAPK2 (human) (UniProt P49137)
# [9] = biological target: TAOK1 (human) (UniProt Q7L7X3)
# [10] = biological target: MELK (human) (UniProt Q14680)
# [11] = biological target: RPS6KA2 KD2 (human) (UniProt Q15349)
# [12] = biological target: CDK9 (human) (UniProt P50750)
# [13] = biological target: ADCK3 (human) (UniProt Q8NI60)
# [14] = biological target: RPS6KA6 KD2 (human) (UniProt Q9UK32)
# [15] = biological target: SLK (human) (UniProt Q9H2G2)
# [16] = biological target: CSNK1A1 (human) (UniProt P48729)
# [17] = biological target: CDK4 CCND1 (human) (UniProt P11802+P24385)
# [18] = biological target: CLK4 (human) (UniProt Q9HAZ1)
# [19] = biological target: RET (human) (UniProt P07949)
# [20] = biological target: CAMK1G (human) (UniProt Q96NX5)
# [21] = biological target: ITK (human) (UniProt Q08881)
# [22] = biological target: FGFR3 (human) (UniProt P22607)
# Chain of FGFR3 (human) (P22607 whole entry, looked up): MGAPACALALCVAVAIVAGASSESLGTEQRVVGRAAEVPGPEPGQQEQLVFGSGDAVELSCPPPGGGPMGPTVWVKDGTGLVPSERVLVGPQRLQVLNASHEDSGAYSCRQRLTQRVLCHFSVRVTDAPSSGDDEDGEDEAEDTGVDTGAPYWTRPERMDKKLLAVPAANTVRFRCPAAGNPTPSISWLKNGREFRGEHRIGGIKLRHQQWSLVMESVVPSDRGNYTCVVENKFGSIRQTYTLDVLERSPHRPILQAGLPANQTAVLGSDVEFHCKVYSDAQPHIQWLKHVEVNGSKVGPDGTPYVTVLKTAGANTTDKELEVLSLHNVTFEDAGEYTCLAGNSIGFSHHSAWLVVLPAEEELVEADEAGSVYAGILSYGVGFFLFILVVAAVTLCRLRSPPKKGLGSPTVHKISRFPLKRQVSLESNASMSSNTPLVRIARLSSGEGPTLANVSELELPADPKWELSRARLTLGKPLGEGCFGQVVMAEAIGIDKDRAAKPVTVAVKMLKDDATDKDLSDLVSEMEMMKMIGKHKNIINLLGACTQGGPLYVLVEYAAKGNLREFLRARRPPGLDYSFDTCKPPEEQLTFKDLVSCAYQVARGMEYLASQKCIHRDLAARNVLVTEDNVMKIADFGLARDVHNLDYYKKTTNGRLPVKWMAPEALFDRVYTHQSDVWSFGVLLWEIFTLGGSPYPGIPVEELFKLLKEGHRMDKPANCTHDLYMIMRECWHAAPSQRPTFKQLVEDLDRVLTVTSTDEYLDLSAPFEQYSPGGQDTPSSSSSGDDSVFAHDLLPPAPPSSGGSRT
# [23] = biological target: INSR (human) (UniProt P06213)
# [24] = biological target: ERBB3 (human) (UniProt P21860)
# [25] = biological target: STK35 (human) (UniProt Q8TDR2)
# [26] = biological target: TBK1 (human) (UniProt Q9UHD2)
# [27] = biological target: ERN1 (human) (UniProt O75460)
# [28] = biological target: RIPK1 (human) (UniProt Q13546)
# [29] = biological target: NTRK2 (human) (UniProt Q16620)
# Chain of NTRK2 (human) (Q16620 whole entry, looked up): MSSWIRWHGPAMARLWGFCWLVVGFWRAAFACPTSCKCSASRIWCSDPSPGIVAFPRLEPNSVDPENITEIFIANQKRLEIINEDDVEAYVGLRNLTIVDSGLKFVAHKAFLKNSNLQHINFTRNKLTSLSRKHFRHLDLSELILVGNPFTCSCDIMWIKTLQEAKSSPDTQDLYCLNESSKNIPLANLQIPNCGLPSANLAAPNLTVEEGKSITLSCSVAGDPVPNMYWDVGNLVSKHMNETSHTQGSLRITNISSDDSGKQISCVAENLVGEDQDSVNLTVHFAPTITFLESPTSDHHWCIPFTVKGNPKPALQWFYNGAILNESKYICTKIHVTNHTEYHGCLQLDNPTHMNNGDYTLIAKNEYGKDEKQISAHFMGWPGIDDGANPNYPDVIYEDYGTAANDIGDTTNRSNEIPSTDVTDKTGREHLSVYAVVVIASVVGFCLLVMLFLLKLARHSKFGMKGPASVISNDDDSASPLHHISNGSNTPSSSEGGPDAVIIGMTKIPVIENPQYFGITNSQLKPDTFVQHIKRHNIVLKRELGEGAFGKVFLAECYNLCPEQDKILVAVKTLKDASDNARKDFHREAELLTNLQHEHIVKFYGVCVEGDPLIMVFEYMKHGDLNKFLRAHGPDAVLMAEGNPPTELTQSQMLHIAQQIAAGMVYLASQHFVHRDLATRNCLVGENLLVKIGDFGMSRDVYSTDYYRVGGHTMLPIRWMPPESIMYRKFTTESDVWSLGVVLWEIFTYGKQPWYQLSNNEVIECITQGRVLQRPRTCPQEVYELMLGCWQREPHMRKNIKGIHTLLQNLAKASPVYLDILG
# [30] = biological target: PI4KB (human) (UniProt Q9UBF8)
# [31] = biological target: ICK (human) (UniProt Q9UPZ9)
# [32] = biological target: TNIK (human) (UniProt Q9UKE5)
# [33] = biological target: AURKC (human) (UniProt Q9UQB9)
# [34] = biological target: RAF1 (human) (UniProt P04049)
# [35] = biological target: MAP4K5 (human) (UniProt Q9Y4K4)
# [36] = biological target: MAP3K11 (human) (UniProt Q16584)
# [37] = biological target: TGFBR1 (human) (UniProt P36897)
# [38] = biological target: TNK2 (human) (UniProt Q07912)
# [39] = biological target: MAP2K7 (human) (UniProt O14733)
# [40] = biological target: MAP3K5 (human) (UniProt Q99683)
# [41] = system: LRRK2 (human), Q5S007 [G2019S]
# Chain of LRRK2 (human), Q5S007 [G2019S] (Q5S007 whole entry G2019S, looked up): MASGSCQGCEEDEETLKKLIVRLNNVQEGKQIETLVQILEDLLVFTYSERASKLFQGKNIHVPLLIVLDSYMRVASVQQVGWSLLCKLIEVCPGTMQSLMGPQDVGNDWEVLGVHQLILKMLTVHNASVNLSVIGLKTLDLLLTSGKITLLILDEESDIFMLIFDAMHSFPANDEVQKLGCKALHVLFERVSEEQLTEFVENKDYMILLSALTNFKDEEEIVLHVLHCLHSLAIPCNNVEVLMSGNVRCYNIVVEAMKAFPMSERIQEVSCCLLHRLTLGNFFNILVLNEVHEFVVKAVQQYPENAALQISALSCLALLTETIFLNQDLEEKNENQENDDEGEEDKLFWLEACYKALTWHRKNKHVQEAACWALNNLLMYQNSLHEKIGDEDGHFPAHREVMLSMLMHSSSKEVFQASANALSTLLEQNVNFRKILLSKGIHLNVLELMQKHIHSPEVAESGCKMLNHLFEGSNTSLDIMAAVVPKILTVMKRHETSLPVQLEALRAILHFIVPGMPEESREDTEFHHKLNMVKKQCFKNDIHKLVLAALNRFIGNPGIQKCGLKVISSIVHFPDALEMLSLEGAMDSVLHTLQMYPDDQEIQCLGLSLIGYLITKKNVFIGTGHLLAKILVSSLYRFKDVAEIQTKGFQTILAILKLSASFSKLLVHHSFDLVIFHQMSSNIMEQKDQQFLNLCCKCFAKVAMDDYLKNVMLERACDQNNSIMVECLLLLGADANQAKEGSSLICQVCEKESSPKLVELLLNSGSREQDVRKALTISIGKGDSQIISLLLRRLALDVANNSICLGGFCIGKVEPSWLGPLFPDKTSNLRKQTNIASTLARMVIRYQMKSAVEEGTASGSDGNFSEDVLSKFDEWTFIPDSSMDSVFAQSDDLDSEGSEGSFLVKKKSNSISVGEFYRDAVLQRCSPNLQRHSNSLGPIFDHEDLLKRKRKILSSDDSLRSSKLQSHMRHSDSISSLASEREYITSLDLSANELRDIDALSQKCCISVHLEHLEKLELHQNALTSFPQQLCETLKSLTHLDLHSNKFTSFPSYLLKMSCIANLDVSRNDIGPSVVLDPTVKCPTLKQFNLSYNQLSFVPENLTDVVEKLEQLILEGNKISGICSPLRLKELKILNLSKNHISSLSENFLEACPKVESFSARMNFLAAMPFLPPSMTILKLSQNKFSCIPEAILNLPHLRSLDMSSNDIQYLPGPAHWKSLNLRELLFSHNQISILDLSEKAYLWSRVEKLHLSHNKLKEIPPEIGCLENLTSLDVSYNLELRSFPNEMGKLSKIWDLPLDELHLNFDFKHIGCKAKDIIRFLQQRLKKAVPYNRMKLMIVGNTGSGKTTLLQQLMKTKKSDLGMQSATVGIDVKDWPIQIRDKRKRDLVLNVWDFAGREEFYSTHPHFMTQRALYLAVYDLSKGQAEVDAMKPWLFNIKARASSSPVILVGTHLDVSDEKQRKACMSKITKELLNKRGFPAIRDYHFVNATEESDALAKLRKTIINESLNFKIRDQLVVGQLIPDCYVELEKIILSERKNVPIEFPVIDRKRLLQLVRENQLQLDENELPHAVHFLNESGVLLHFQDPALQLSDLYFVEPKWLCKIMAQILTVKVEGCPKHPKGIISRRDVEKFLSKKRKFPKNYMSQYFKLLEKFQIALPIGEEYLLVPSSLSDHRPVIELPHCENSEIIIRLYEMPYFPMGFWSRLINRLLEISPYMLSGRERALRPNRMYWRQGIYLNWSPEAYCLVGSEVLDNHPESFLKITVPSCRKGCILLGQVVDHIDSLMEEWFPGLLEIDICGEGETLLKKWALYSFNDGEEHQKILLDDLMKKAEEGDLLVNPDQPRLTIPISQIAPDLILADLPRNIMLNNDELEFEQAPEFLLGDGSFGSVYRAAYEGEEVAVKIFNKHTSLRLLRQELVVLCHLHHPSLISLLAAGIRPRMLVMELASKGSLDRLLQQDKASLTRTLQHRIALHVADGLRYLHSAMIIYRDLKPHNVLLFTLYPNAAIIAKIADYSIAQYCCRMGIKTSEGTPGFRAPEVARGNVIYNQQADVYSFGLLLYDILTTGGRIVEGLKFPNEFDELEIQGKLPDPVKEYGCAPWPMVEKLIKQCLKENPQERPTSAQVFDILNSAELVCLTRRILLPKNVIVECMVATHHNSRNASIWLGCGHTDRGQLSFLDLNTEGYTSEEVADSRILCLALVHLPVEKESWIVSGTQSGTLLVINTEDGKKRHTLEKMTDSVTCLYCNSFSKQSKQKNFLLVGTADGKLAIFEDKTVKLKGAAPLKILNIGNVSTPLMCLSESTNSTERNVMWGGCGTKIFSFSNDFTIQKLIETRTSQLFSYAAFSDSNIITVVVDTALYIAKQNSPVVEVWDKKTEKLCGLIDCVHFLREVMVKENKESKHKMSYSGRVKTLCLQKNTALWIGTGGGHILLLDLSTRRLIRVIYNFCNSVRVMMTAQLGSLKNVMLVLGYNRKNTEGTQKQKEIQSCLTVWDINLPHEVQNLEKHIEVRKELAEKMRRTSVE
# Chain of PIP5K1A (human) (Q99755 whole entry, looked up): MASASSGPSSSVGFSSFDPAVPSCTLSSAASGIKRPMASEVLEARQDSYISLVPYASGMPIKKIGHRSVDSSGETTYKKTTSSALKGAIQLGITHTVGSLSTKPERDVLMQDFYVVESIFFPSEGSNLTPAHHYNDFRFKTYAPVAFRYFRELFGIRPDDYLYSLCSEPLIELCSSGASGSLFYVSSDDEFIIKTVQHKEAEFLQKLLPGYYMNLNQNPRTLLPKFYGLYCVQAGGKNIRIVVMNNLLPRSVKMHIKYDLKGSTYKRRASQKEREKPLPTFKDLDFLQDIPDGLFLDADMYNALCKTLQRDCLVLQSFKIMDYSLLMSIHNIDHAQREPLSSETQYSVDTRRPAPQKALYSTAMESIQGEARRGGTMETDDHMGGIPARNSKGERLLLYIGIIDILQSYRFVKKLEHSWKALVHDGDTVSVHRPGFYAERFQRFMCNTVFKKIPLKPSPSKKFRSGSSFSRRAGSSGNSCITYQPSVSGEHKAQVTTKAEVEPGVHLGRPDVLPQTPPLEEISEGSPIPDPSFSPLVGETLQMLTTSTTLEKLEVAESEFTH
# Chain of PIM2 (human) (Q9P1W9 whole entry, looked up): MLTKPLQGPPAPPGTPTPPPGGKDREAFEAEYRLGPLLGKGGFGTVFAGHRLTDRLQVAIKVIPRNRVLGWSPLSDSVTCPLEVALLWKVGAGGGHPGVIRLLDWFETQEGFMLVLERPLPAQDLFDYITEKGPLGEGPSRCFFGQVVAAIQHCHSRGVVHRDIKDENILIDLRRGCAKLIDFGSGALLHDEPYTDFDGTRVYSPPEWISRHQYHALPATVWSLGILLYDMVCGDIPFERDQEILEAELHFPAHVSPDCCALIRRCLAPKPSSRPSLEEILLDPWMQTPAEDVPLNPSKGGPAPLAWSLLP
smiles,measurement,setting,value
CNC(=O)c1cc(Oc2ccc(NC(=O)Nc3ccc(Cl)c(C(F)(F)F)c3)cc2)ccn1,per cent of control,[1],0%
same,per cent of control,[2],20%
same,per cent of control,[3],100%
same,per cent of control,[4],85%
same,per cent of control,[5],89%
same,per cent of control,[6],15%
same,per cent of control,[7],93%
same,per cent of control,[8],91%
same,per cent of control,[9],12%
same,per cent of control,[10],83%
same,per cent of control,[11],59%
same,per cent of control,[12],62%
same,per cent of control,[13],90%
same,per cent of control,[14],16%
same,per cent of control,[15],9.2%
same,per cent of control,[16],100%
same,per cent of control,[17],66%
same,per cent of control,[18],30%
same,per cent of control,[19],0%
same,per cent of control,[20],87%
same,per cent of control,[21],100%
same,per cent of control,[22],20%
same,per cent of control,[23],100%
same,per cent of control,[24],70%
same,per cent of control,[25],7.8%
same,per cent of control,[26],100%
same,per cent of control,[27],92%
same,per cent of control,[28],88%
same,per cent of control,[29],6.1%
same,per cent of control,[30],100%
same,per cent of control,[31],100%
same,per cent of control,[32],21%
same,per cent of control,[33],12%
same,per cent of control,[34],0.7%
same,per cent of control,[35],1.5%
same,per cent of control,[36],74%
same,per cent of control,[37],100%
same,per cent of control,[38],99%
same,per cent of control,[39],92%
same,per cent of control,[40],100%
same,per cent of control,[41],62%
CNC(=O)c1cc(Oc2ccc(NC(=O)Nc3ccc(Cl)c(C(F)(F)F)c3)cc2)cc[n+]1[O-],per cent of control,[1],0%
same,per cent of control,[2],27%
same,per cent of control,[3],100%
same,per cent of control,[4],60%
same,per cent of control,[5],100%
same,per cent of control,[6],1.8%
same,per cent of control,[7],100%
same,per cent of control,[8],100%
same,per cent of control,[9],11%
same,per cent of control,[10],65%
same,per cent of control,[11],42%
same,per cent of control,[12],73%
same,per cent of control,[13],86%
same,per cent of control,[14],6.4%
same,per cent of control,[15],9.4%
same,per cent of control,[16],100%
same,per cent of control,[17],74%
same,per cent of control,[18],47%
same,per cent of control,[19],0%
same,per cent of control,[20],76%
same,per cent of control,[21],100%
same,per cent of control,[22],32%
same,per cent of control,[23],83%
same,per cent of control,[24],62%
same,per cent of control,[25],40%
same,per cent of control,[26],100%
same,per cent of control,[27],66%
same,per cent of control,[28],87%
same,per cent of control,[29],2.4%
same,per cent of control,[30],100%
same,per cent of control,[31],100%
same,per cent of control,[32],3.9%
same,per cent of control,[33],15%
same,per cent of control,[34],0.45%
same,per cent of control,[35],0.45%
same,per cent of control,[36],89%
same,per cent of control,[37],100%
same,per cent of control,[38],100%
same,per cent of control,[39],63%
same,per cent of control,[40],89%
same,per cent of control,[41],64%
